Paper PMC4376699, “Characterization of Binding and Inhibitory Properties of TAK-063, a Novel Phosphodiesterase 10A Inhibitor” (PLoS ONE, 2015)

How the values were obtained:
[1] = target: T1, Phosphodiesterase PDE10A1 (Homo sapiens, UniProt Q9Y233); experiment: enzyme inhibition panel at […] (Ricerca Biosciences), […] inhibition; type: biochemical
T1 construct: gene PDE10A; PDE10A1

[2] = target: T2, Phosphodiesterase 10A (PDE10A) (Rattus norvegicus, UniProt Q9QYJ6); experiment: [3H]TAK-063 saturation binding on rat brain sections (autoradiography); Kd […] NAc shell, […] CPu
T2 construct: native PDE10A in rat brain sections
T2 sequence (Q9QYJ6 1-794): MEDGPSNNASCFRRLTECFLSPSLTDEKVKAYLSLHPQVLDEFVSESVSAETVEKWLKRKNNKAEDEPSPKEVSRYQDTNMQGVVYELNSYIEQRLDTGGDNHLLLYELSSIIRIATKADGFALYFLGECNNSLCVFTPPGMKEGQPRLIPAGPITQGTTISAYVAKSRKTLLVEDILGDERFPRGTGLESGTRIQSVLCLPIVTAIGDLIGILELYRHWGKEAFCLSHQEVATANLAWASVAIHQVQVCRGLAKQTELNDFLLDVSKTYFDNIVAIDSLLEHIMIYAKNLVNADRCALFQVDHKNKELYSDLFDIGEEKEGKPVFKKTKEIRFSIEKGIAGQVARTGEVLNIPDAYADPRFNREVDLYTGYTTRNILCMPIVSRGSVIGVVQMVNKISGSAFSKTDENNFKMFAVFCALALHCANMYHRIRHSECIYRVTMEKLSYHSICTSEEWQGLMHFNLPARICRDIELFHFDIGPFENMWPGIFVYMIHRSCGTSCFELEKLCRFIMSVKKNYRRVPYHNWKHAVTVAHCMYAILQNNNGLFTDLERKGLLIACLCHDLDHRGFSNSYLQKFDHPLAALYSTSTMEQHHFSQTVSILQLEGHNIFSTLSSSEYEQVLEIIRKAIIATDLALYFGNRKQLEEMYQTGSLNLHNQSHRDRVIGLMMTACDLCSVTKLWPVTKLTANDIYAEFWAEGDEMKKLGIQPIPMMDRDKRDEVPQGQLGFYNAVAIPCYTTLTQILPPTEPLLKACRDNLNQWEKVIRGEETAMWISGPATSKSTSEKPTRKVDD

T1 sequence (Q9Y233 1-779 isoform Q9Y233-1): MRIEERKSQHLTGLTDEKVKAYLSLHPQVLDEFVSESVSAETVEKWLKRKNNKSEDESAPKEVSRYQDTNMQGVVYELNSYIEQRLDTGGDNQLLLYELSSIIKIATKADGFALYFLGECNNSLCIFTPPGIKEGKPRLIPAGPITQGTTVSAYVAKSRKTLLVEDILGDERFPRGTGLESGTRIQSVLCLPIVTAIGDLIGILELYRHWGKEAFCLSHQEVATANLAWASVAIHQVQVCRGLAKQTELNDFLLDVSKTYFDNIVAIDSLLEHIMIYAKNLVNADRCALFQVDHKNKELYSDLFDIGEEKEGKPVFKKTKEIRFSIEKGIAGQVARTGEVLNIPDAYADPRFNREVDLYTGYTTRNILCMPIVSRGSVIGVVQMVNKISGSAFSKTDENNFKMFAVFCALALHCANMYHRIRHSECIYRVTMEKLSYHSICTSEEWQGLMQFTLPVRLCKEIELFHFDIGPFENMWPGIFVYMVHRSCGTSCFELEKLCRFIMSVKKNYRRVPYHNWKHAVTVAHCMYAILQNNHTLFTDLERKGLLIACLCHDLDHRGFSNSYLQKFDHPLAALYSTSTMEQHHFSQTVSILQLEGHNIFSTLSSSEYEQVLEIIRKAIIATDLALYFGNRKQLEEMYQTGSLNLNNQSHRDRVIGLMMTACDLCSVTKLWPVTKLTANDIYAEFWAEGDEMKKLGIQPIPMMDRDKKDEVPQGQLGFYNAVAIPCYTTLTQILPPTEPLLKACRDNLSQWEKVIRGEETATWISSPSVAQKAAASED

SMILES: COc1cn(-c2ccc(-n3cccn3)cc2F)nc(-c2ccnn2-c2ccccc2)c1=O [TAK-063, 1-[2-fluoro-4-(1H-pyrazol-1-yl)phenyl]-5-methoxy-3-(1-phenyl-1H-pyrazol-5-yl)-pyridazin-4(1H)-one]
- inhibition at 10 µM [1]: 101%
- Kd [2]: 2.6 nM
